Consider 11 compounds from patent publication US9060997B2, “Antifolate compounds for the treatment of melanoma” (UNIVERSIDAD DE MURCIA, priority 2007, dated 2015).

Broadly, the IC50 is the midpoint of a concentration-inhibition curve. One may read the Ki as a dissociation constant, usually derived from enzyme kinetics or from competition with a known ligand. What is called koff is the first-order rate constant of dissociation. As a reminder, the kon is the second-order rate constant of association. Usually Km stands for the substrate concentration at which the rate is half of its maximum. As a reminder, the pKa is the pH at which an ionisable group is half protonated.

For data set [1], the system named is SkMel-28 cells. Put plainly: MTT cell proliferation assay, SkMel-28. As to conditions: for IC50: SK-MEL-28, 120 h. The format is cell-based, human. The method, then:
(§1) Four human cancer cells lines (SkMel-28, MCF7, H1264 and Caco-2) were obtained from the American Type Tissue Culture Collection (ATCC) and were maintained in appropriate culture mediums supplemented with 10% fetal calf serum (FCS) and antibiotics, under standard tissue culture conditions (e.g. modified Eagle's medium (MEM) containing 1 mM sodium pyruvate and 10% fetal bovine serum (FES) under 5% CO2/95% air atmosphere.). Cell injury was evaluated by a colorimetric assay for mitochondrial function using the 3-(4,5-dimethylthiazolyl-2)-2,5-diphenyltetrazolium bromide (MTT) cell proliferation assay. For this assay cells were plated in a 96-well plate at a density of 1000 cells/well and grown until they reached 50-60% confluence. Human epidermal melanocytes (HeM) were supplied by Gentaur and were cultured in HAM-F10 medium supplemented with 10% FCS, antibiotics and the human melanocyte growth supplement (Gentaur).
Cell injury was evaluated by a colorimetric assay for mitochondrial function using the 3-(4,5-dimethylthiazolyl-2)-2,5-diphenyltetrazolium bromide (MTT) cell proliferation assay. For this assay cells were plated in a 96-well plate at a density of 1000 cells/well and grown until they reached 30% confluence. Co-treatments of SkMel-28 cells with TMECG and other reagents were carried out by supplementing medium cultures with S-adenosylmethionine (SAM), adenosine or dipyridamole (all from Sigma).
For orientation: Formazan colour is commonly taken as a measure of viable cells.

Data set [2] has as its system B16/F10 melanoma cell tumours. Put plainly: Primary tumour model, B16/F10 melanoma in C57/B16 mice. The format is in vivo, mouse. An excerpt:
Translational therapy was then designed to probe the efficacy of this combination on mice induced melanoma tumor. Injection of 5×10^5 B16/F10 melanoma cells in the back of C57/B16 mice formed a blackish tumor mass, which in untreated control mice reached to a tumor area of 3.7±0.7 and 9.3±1.1 cm2 in female and male, respectively, after 21 days of cells inoculation.

Another data set concerns Caco-2 cells. Put plainly: MTT cell proliferation assay, Caco-2. The format is cell-based, human. To be noted: Caco-2. As for the experimental part:
as §1

Data set [3] has as its target T1, rHDHFR (Homo sapiens, UniProt P00374).
T1 construct: purchased Sigma
T1 sequence (P00374 1-187): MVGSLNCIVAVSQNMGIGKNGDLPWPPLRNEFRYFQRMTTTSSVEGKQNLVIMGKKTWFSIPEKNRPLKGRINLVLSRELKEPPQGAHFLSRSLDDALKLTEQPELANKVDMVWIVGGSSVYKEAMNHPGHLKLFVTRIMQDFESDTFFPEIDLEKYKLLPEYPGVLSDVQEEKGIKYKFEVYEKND
Put plainly: rHDHFR inhibition, progress curves. The format is biochemical. As to conditions: for Decrease % further EI reactions: decrease of KI to KI* by further EI-complex reactions; for Ki: overall (effective) inhibition constant, read-out: KI*. As for the experimental part: The experiments were carried out in the same buffer as fluorescence experiments in the presence of NADPH (100 μM), DHF (10 μM), and rHDHFR (1.5 nM).
(§2) The activity of rHDHFR was determined at 25° C. by following the decrease in the absorbance of NADPH and DHF at 340 nm (ε=11800 M-1 cm−1) (Stone and Morrison, 1986). Progress curves were obtained under ordered conditions ([NADPH]>>[DHF]). rHDHFR inhibition constants were calculated as described by Navarro-Perán et al., 2005b. The dissociation constant for the binding of inhibitors to free rHDHFR was determined at 25° C. by fluorescence titration in an automatic-scanning Perkin-Elmer LS50B spectrofluorimeter. Fluorescence emission spectra were recorded when rHDHFR fluorescence was excited at 290 nm. Stopped-flow fluorescence experiments were carried out using an Applied Photophysics Ltd. Pi-Star 180 spectrometer with a stopped-flow unit at 25° C.

Data set [4] has as its target T1, rHDHFR. Put plainly: rHDHFR binding: fluorescence titration and stopped-flow fluorescence. As to conditions: for koff: calculated from KI=koff/kon; for Ki: dissociation constant, free rHDHFR, fluorescence titration; for Ki / kon: pH 7.4, 25° C.; for kon: stopped-flow fluorescence. As for the experimental part: The experiments were carried out in a buffer containing 2-(N-morpholino)ethanesulfonic acid (Mes, 0.025 M), sodium acetate (0.025 M), tris-(hydroxymethyl)aminomethane (Tris 0.05 M), and NaCl (0.1 M) at pH 7.4 and 25° C. in the presence of QM and rHDHFR (0.5 μM).
Stopped-flow fluorescence experiments were carried out at pH 7.4 and 25° C. using an enzyme concentration of 0.25 μM. The reaction of rHDHFR with inhibitors was observed under pseudo-first order conditions by fluorescence at 340 nm (excitation at 290 nm). The data points s are the means of at least 3 (normally 5) repeat observations±SD. […] Aliquots (20 μl) of the incubation mixture was then diluted 50-fold into a reaction mixture containing the buffer, NADPH (100 μM), and DHF (10 μM) to give a final enzyme concentration of 1.5 nM.
as §2

In the next data set the target is T2, human tyrosinase (Homo sapiens, UniProt P14679).
T2 sequence (P14679 19-529): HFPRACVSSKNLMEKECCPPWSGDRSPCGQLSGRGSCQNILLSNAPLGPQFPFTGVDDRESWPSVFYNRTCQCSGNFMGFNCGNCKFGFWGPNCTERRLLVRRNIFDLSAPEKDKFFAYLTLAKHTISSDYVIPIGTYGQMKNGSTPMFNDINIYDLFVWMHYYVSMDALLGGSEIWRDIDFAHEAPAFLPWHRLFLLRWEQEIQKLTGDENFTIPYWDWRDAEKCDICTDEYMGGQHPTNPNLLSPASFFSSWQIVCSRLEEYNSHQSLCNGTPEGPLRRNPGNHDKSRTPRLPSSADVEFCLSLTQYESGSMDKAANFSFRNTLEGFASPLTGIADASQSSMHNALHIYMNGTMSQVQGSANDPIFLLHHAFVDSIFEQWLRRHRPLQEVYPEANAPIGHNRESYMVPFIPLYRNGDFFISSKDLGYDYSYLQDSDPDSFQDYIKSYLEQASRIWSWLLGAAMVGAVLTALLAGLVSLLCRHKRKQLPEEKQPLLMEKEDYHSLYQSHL
As to conditions: recombinant human tyrosinase (Kong et al., 2000); read-out: Michaelis-Menten constant (Km), value reported; cited from earlier work.

Data set [5] concerns SkMel-28 cells. The data set is described as follows: Microscopy of melanosome melanin content. The format is cell-based, human. To be noted: treated SkMel-28 versus untreated. As for the experimental part: Confluent monolayers of SkMel-28 were harvested with a mixture of 0.05% trypsin, 0.53 mmol/L EDTA and washed once in 0.25 mol/L sucrose by centrifugation at 700×g for 5 min at 4° C. They were then homogenized on ice using 20 strokes of an ice-cold Dounce homogenizer and centrifuged at 700×g for 10 min at 4° C. The resultant postnuclear supernatant was centrifuged at 17,000×g for 15 min at 4° C. to yield a melanosome-enriched granular fraction (17). This fraction was resuspended in 0.5-2 ml of ice-cold 0.25 mol/L sucrose, 10 mmol/L HEPES, pH 7.0 and fixed for 1 h at room temperature in 2% glutaraldehyde, 2% paraformaldehyde in 0.1 mol/L sodium cacodylate buffer, pH 7.3. The fixative was then removed and the samples stored in PBS containing 4% sucrose at 4° C. Samples were subsequently dehydrated with graded alcohols and embedded in epoxy resin. This section were stained with uranyl acetate and lead citrate and examined with a Zeiss EM10 electron microscope.

Data set [6] is described as follows: pH dependence of absorbance and stability of the tyrosinase product. The format is physicochemical.
Description: We studied the oxidation of TMECG by tyrosinase at pH 5.5. […] The initial formation of o-Q was confirmed by including reducing agents such as ascorbic acid or NADPH in the reaction medium. […] The pH transition might represent the equilibrium between the protonated form (QMH) and the deprotonated form (QM^−), a species which is stabilized by resonance and FIG. 9E represents the possible abundance of QM species in different melanocyte compartments.
In data set [7] the test system is Caco-2 and SkMel-28 cells. The data set is described as follows: Cellular uptake of ECG, TMECG and QM. As to conditions: 50 μM catechins. The format is in vitro ADME, human. The method, then: Cellular uptake was determined by the difference between the initial concentration of catechin and the calculated at specific times in the cellular medium, and expressed as a percentage of catechin at zero time. The values presented are the mean percentage determined from five independent experiments±SD.
For cellular uptake experiments Caco-2 and SkMel-28 cells were grown until reaching 90% confluence. Then, 20 ml of cellular medium containing 50 μM catechins and 0.2 mM ascorbic acid was added and incubated for 60 h in a CO2 incubator. At specified times 1 ml-aliquots were taken and frozen in liquid N2 until the catechin concentrations were determined by HPLC. Catechins were identified by their characteristic elution times and their concentration calculated with respect to calibration curves of known concentrations of catechins.

In a further data set the test system is MAT2A. To be noted: cited from earlier work.
The test system of data set [8] is 4T1 mice breast cancer cell line. The data set is described as follows: 4T1 breast cancer model in Balb/c mice. To be noted: 40 mg/Kg/d intraperitoneally, Balb/c female mice. The format is in vivo, mouse. As for the experimental part: The 4T1 mice breast cancer cell line (ATCC) was used for tumour implantation. This cell line is highly metastatic and after its injection on the back of the Balb/c mice it expanded to the lungs forming metastasis in this organ. Initial experiments were designed for injection in the back to follow tumour growth and lung metastasis.
We treated 6 Balb/c female mice were treated intraperitoneally with TMCG (40 mg/Kg/d) and compared with 6 untreated (control) mice.

Where two headings read alike, the source gives them in different places.

For the compound `Nc1ncnc2c1ncn2[C@@H]1O[C@H](CO)[C@@H](O)[C@H]1O` [Adenosine, adenosine], in the data set with SkMel-28 cells [1] (up to 500 μM), the “effect of adenosine alone on SkMel-28 growth” value is on record as “had not any detectable effect”.
As to `OCCN(CCO)c1nc(N2CCCCC2)c2nc(N(CCO)CCO)nc(N3CCCCC3)c2n1` [Dipyridamole, dipyridamole, reference compound], the IC50 in the data set on SkMel-28 cells [1] (Homo sapiens, dipyridamole alone, SkMel-28, read-out: IC50 (at 5 days)) is 20 µM; in the data set with SkMel-28 cells [1] (Homo sapiens, in the presence of 50 μM TMECG, SkMel-28, read-out: IC50 (at 5 days) in the presence of TMECG), below 1 µM. Further, in data set [2] (females, DIPY 10 mg/Kg/d alone), the “effect on tumor growth” value was “had not visible effects on tumor growth”. Further, in data set [2] (male mice), the “effect of single treatments” value was “not effective”.
With `Oc1cc(O)c2c(c1)O[C@H](c1ccc(O)c(O)c1)[C@H](O)C2` [EC, Epicatechin, reference compound], in the data set on Caco-2 cells, the “effect of natural and synthetic catechins on Caco-2 growth” value is on record as “no detectable activity”.
As to `O=C(O[C@@H]1Cc2c(O)cc(O)cc2O[C@@H]1c1cc(O)c(O)c(O)c1)c1cc(O)c(O)c(O)c1` [EGCG, reference compound], at rHDHFR [3], the “Decrease % further EI reactions” value is recorded as 28 −fold and the Ki stood at 0.033 µM. At rHDHFR [4], the koff was 0.12 s⁻¹, affinity was put at a Ki of 0.92 µM and the on-rate (kon) was 130000 M⁻¹ s⁻¹.
Consider `N[C@@H](Cc1ccc(O)c(O)c1)C(=O)O` [L-dopa], for which the Km at human tyrosinase is 360 µM.
As to `CN(Cc1cnc2nc(N)nc(N)c2n1)c1ccc(C(=O)N[C@@H](CCC(=O)O)C(=O)O)cc1` [MTX, methotrexate], in the data set on SkMel-28 cells [1] (100 μM leucovorin, MTX 1 μM or TMECG 50 μM, 3 days), the “effect of leucovorin co-treatment on growth inhibition” value was “effectively reversed this inhibition”. For the same compound, in the data set on SkMel-28 cells [1] (Homo sapiens, SK-MEL-28, 72 h, 1 μM, 3 days, SkMel-28, read-out: growth inhibited), the inhibition at 1 µM stood at 70%. In addition, in the data set with SkMel-28 cells [1] (sulfasalazine 0.5 mM, MTX 0.2 μM or TMECG 10 μM, 3 days), the “effect of sulfasalazine (RFC inhibitor) on antiproliferative action” value is reported as “inhibited the antiproliferative action of MTX”. The melanosome melanin content entry with SkMel-28 cells [5] is on record as “much less melanin content”.
As to `COc1cc(C(=O)O[C@H](Cc2c(O)cc(O)cc2O)C(=O)c2ccc(O)c(O)c2)cc(OC)c1OC` [QM], on rHDHFR [3], the “Decrease % further EI reactions” value is 0 −fold and the Ki came to 0.0082 µM. For the same compound, on rHDHFR [4], the “reversibility of binding to rHDHFR” value is “essentially irreversible” and the Ki was found to be 0.0082 ± 0.00011 µM. Besides, on rHDHFR [4] (read-out: koff), the koff is 0.00048 s⁻¹. On rHDHFR [4] (read-out: kon), the kon was 58000 M⁻¹ s⁻¹. Also, in data set [6], the stability entry is “high stability over a wide pH range”. In addition, the pKa in data set [6] (absorbance at 470 nm vs pH, read-out: pKa of ionisable group) was found to be 6.9 ± 0.1. Also, in data set [7], the “cellular uptake / membrane transport” value is listed as “limited degree of cell membrane diffusion”.
As to `C[S+](CC[C@H](N)C(=O)O)C[C@H]1O[C@@H](n2cnc3c(N)ncnc32)[C@H](O)[C@@H]1O` (stereo partly shown) [SAM, S-adenosylmethionine, reference compound], the IC50 in the data set on MAT2A (Sullivan and Hoffman, 1983, read-out: IC50 for inhibition of MAT2) was 60 µM. The “effect of SAM alone on SkMel-28 growth” value in the data set on SkMel-28 cells [1] (SAM alone) is reported as “Only high amount of SAM (up to 100 μM) affected SkMel-28 growth”.
As for `COc1cc(C(=O)O[C@H]2Cc3c(O)cc(O)cc3O[C@@H]2c2ccc(O)c(O)c2)cc(OC)c1OC` [TMCG, 3-O-(3,4,5-Trimethoxybenzoyl)-(−)-Catechin], in data set [8], the “growth of metastases (lung tumor volume)” value was “slower growth of metastases”.
In the case of `CSCC[C@H](N)C(=O)O` [methionine], in the data set with MAT2A, the Km was 4 to 10 µM.
Regarding “epicatechin-3-gallate [ECG, reference compound]”, at rHDHFR [3], the “Decrease % further EI reactions” value is listed as 19 −fold and the Ki worked out at 0.092 µM. Further, on rHDHFR [4], the koff is 0.30 s⁻¹, the Ki came out at 1.78 µM and the association rate constant (kon) is 170000 M⁻¹ s⁻¹.
